{
  "source": "ChEMBL document CHEMBL5150003",
  "about": "“Why All the Fury over Furin?” (J Med Chem, 2022)",
  "key": {"Furin [1]": {"molecular_target": "T1, Furin (Homo sapiens, UniProt P09958)", "T1 sequence (P09958 whole entry)": "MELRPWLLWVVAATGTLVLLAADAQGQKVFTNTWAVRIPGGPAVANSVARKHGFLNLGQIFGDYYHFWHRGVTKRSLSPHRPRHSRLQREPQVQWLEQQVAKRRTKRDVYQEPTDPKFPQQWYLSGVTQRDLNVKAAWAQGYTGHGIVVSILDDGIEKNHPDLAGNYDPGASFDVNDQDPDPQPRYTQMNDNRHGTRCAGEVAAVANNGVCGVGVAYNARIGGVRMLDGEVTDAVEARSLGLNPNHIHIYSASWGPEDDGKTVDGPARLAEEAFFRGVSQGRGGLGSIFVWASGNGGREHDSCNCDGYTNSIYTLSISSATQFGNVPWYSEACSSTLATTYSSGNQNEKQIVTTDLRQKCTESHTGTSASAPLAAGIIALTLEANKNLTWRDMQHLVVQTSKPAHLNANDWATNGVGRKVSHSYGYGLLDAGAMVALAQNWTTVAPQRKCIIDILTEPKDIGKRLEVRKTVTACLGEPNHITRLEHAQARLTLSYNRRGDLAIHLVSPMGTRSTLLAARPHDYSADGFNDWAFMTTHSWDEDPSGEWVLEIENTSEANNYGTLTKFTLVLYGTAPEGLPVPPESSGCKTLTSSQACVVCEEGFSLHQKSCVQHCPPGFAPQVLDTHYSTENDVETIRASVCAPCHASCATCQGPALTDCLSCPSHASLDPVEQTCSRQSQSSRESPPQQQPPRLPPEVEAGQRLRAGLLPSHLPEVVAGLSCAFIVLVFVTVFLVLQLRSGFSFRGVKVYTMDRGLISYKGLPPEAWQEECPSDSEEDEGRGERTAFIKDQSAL", "test": "Inhibition of furin (unknown origin)"}, "Furin [2]": {"molecular_target": "T1, Furin", "test": "Inhibition of furin in human U2OS cells measured after 24 hrs by fluorescence assay", "type": "cell-based"}, "Mus musculus [3]": {"tested_on": "Mus musculus", "test": "Antifibrotic activity against bleomycin-induced mouse lung fibrosis model assessed as inhibition of TGF-beta secretion in lung at 10 mg/kg, po administered once daily", "type": "functional"}, "Mus musculus [4]": {"tested_on": "Mus musculus", "test": "Antifibrotic activity against bleomycin-induced mouse lung fibrosis model assessed as inhibition of hydroxyproline content in lung at 10 mg/kg, po administered once daily", "type": "functional"}, "Furin [5]": {"molecular_target": "T1, Furin", "test": "Inhibition of Recombinant vaccinia-expressed furin (unknown origin) using Pyr-RTKR-MCA as substrate and measured by fluorescence based assay"}, "[6]": {"test": "Cytotoxicity against chinese hamster CHO-DG44 cells assessed as cell viability at 100 uM and measured after 2 hrs by WST-1 method", "type": "toxicity, cell-based, Cricetulus griseus", "conditions": "read-out: Activity"}, "[7]": {"test": "Cytotoxicity against human HT-1080 cells assessed as cell viability at 100 uM and measured after 2 hrs by WST-1 method", "type": "toxicity, cell-based", "conditions": "read-out: Activity"}, "[8]": {"test": "Inhibition of migration of human HT-1080 cells at 100 uM measured by calcein AM/ethidium homodimer (EthD-1) staining method", "type": "functional"}, "RAW264.7": {"tested_on": "RAW264.7", "test": "Protective activity against Anthrax toxin-induced cytotoxicity in mouse RAW264.7 cells measured by WST-1 method", "type": "functional", "conditions": "dose 100 µM"}, "Furin [9]": {"molecular_target": "T1, Furin", "test": "Inhibition of furin (unknown origin) using Pyr-RTKR-MCA as substrate incubated for 30 mins and measured by FRET assay"}, "[10]": {"test": "Protective activity against Pseudomonas aeruginosa exotoxin A-induced cytotoxicity in chinese hamster CHO-DG44 cells measured by WST-1 method", "type": "functional, Cricetulus griseus", "conditions": "dose 100 µM"}},
  "note": "Numbered stars: 1 amine (or outer) side, 2 acyl side, 3 side chain; on linkers, the order of the positions; unused ones are H or OH. Bridge positions count the residues as written; N and C are the ends. Square brackets hold non-standard residues; d marks the D form. Peptide text beside a SMILES is read from it. * marks the point of attachment. NH(4-amidinobenzyl) = N=C(N)c1ccc(CN*)cc1; 2Nal = N[C@@H](Cc1ccc2ccccc2c1)C(=O)O; Glutaryl = O=C(CCCC(=O)[*:2])[*:1]; Suc = O=C(CCC(=O)[*:2])[*:1]",
  "data": [
    {"compound": "N=C(N)NCCC[C@@H]1NC(=O)CCCC(=O)NCCCC[C@@H](C(=O)N[C@@H](CCCNC(=N)N)C(=O)NCc2ccc(C(=N)N)cc2)NC(=O)[C@H](CCCNC(=N)N)NC1=O", "note": "(RRKR-{NH(4-amidinobenzyl)}; linker N-3 via Glutaryl)", "values": [
      {"measurement": "Ki", "setting": "Furin [1]", "value": 0.504, "unit": "nM"}
    ]},
    {"compound": "CC(C)(C)[C@@H]1NC(=O)[C@H](CCCNC(=N)N)NC(=O)[C@H](CCCNC(=N)N)NC(=O)[C@@H](N)CCCCNC(=O)Cc2ccc(cc2)CNC(=O)CCCC(=O)NCCCC[C@@H](C(=O)NCc2ccc(C(=N)N)cc2)NC1=O", "values": [
      {"measurement": "Ki", "setting": "Furin [1]", "value": 1.17, "unit": "nM"}
    ]},
    {"compound": "CC(C)(C)[C@H](NC(=O)[C@H](CCCNC(=N)N)NC(=O)Cc1ccc(CN)cc1)C(=O)N[C@@H](CCCNC(=N)N)C(=O)NCc1ccc(C(=N)N)cc1", "values": [
      {"measurement": "Ki", "setting": "Furin [1]", "value": 0.0224, "unit": "nM"}
    ]},
    {"compound": "CN1CCN(c2ncc(Oc3cc(CN4CCC(CC(=O)O)CC4)cc(-c4cc(Cl)cc(Cl)c4)n3)cn2)CC1", "values": [
      {"measurement": "pXC50", "setting": "Furin [2]", "value": 7.8},
      {"measurement": "inhibition in vivo at 10 mg/kg", "setting": "Mus musculus [3]", "value": 66, "unit": "%"},
      {"measurement": "inhibition in vivo at 10 mg/kg", "setting": "Mus musculus [4]", "value": 46, "unit": "%"}
    ]},
    {"compound": "CS(=O)(=O)CCCN1CCN(c2ncc(Oc3cc(CN4CCC(CC(=O)O)CC4)cc(-c4cc(Cl)cc(Cl)c4)n3)cn2)CC1", "values": [
      {"measurement": "pXC50", "setting": "Furin [2]", "value": 7.6},
      {"measurement": "inhibition in vivo at 10 mg/kg", "setting": "Mus musculus [3]", "value": 40, "unit": "%"},
      {"measurement": "inhibition in vivo at 10 mg/kg", "setting": "Mus musculus [4]", "value": -1, "unit": "%"}
    ]},
    {"compound": "N=C(N)Nc1ccc(Oc2cccc(Oc3ccc(NC(=N)N)cc3)c2)cc1", "values": [
      {"measurement": "Ki", "setting": "Furin [5]", "value": 1500, "unit": "nM"},
      {"measurement": "viability at 2 h, 100 µM", "setting": "[6]", "value": "> 20", "unit": "%"},
      {"measurement": "viability at 2 h, 100 µM", "setting": "[7]", "value": "> 20", "unit": "%"},
      {"measurement": "inhibition at 100 µM", "setting": "[8]", "value": 90, "unit": "%"},
      {"measurement": "Activity", "setting": "RAW264.7", "value": 70, "unit": "%"}
    ]},
    {"compound": "N=C(N)c1ccc(OC2CCCC(Oc3ccc(C(=N)N)cc3)C2)cc1", "note": "(stereo unspecified)", "values": [
      {"measurement": "Ki", "setting": "Furin [9]", "value": 1000, "unit": "nM"}
    ]},
    {"compound": "N=C(N)Nc1ccc(OCCCOc2ccc(NC(=N)N)cc2NC(=N)N)c(NC(=N)N)c1", "values": [
      {"measurement": "Ki", "setting": "Furin [5]", "value": 2700, "unit": "nM"},
      {"measurement": "viability at 2 h, 100 µM", "setting": "[6]", "value": "> 90", "unit": "%"},
      {"measurement": "viability at 2 h, 100 µM", "setting": "[7]", "value": "> 90", "unit": "%"},
      {"measurement": "inhibition at 100 µM", "setting": "[8]", "value": "< 40", "unit": "%"},
      {"measurement": "Activity", "setting": "[10]", "value": "<30", "unit": "%"},
      {"measurement": "Activity", "setting": "RAW264.7", "value": 50, "unit": "%"}
    ]},
    {"compound": "N=C(N)Nc1ccc(Oc2cccc(Oc3ccc(NC(=N)N)cc3NC(=N)N)c2)c(NC(=N)N)c1", "values": [
      {"measurement": "Ki", "setting": "Furin [5]", "value": 400, "unit": "nM"},
      {"measurement": "viability at 2 h, 100 µM", "setting": "[6]", "value": "> 60", "unit": "%"},
      {"measurement": "viability at 2 h, 100 µM", "setting": "[7]", "value": "> 60", "unit": "%"},
      {"measurement": "inhibition at 100 µM", "setting": "[8]", "value": "< 20", "unit": "%"},
      {"measurement": "Activity", "setting": "[10]", "value": "<40", "unit": "%"},
      {"measurement": "Activity", "setting": "RAW264.7", "value": 100, "unit": "%"}
    ]},
    {"compound": "CC(C)(C)[C@H](NC(=O)[C@H](CCCNC(=N)N)NC(=O)Cc1ccc(CNC(=N)N)cc1)C(=O)N[C@@H](CCCNC(=N)N)C(=O)NCc1ccccc1", "values": [
      {"measurement": "IC50", "setting": "Furin [1]", "value": 0.56, "unit": "nM"}
    ]},
    {"compound": "O=C(O)CC1CCN(Cc2cc(Oc3cnc(N4CCNCC4)nc3)nc(-c3cc(Cl)cc(Cl)c3)c2)CC1", "values": [
      {"measurement": "pXC50", "setting": "Furin [2]", "value": 7.6},
      {"measurement": "inhibition in vivo at 10 mg/kg", "setting": "Mus musculus [3]", "value": -11, "unit": "%"},
      {"measurement": "inhibition in vivo at 10 mg/kg", "setting": "Mus musculus [4]", "value": 6, "unit": "%"}
    ]},
    {"compound": "C[C@@H](O)CN1CCN(c2ncc(Oc3cc(CN4CCC(CC(=O)O)CC4)cc(-c4cc(Cl)cc(Cl)c4)n3)cn2)CC1", "values": [
      {"measurement": "pXC50", "setting": "Furin [2]", "value": 7.7},
      {"measurement": "inhibition in vivo at 10 mg/kg", "setting": "Mus musculus [3]", "value": 23, "unit": "%"},
      {"measurement": "inhibition in vivo at 10 mg/kg", "setting": "Mus musculus [4]", "value": 16, "unit": "%"}
    ]},
    {"compound": "N=C(N)Nc1ccc(O[C@H]2C[C@@H](Oc3ccc(NC(=N)N)c4ccccc34)[C@H](NC(=N)N)C[C@@H]2NC(=N)N)cc1", "values": [
      {"measurement": "viability at 2 h, 100 µM", "setting": "[6]", "value": "> 50", "unit": "%"},
      {"measurement": "viability at 2 h, 100 µM", "setting": "[7]", "value": "> 50", "unit": "%"},
      {"measurement": "Activity", "setting": "[10]", "value": 60, "unit": "%"},
      {"measurement": "Activity", "setting": "RAW264.7", "value": 90, "unit": "%"}
    ]},
    {"compound": "N=C(N)Nc1ccc(O[C@H]2C[C@@H](Oc3ccc(NC(=N)N)c4ccccc34)[C@H](NC(=N)N)C[C@@H]2NC(=N)N)c(NC(=N)N)c1", "values": [
      {"measurement": "viability at 2 h, 100 µM", "setting": "[6]", "value": "> 80", "unit": "%"},
      {"measurement": "viability at 2 h, 100 µM", "setting": "[7]", "value": "> 80", "unit": "%"},
      {"measurement": "inhibition at 100 µM", "setting": "[8]", "value": "> 60", "unit": "%"},
      {"measurement": "Activity", "setting": "RAW264.7", "value": 50, "unit": "%"}
    ]},
    {"compound": "N=C(N)N[C@H]1C[C@@H](NC(=N)N)[C@H](Oc2ccc(C(=N)N)cc2)C[C@@H]1Oc1ccc(C(=N)N)cc1", "values": [
      {"measurement": "Ki", "setting": "Furin [9]", "value": 2, "unit": "nM"}
    ]},
    {"compound": "N=C(N)Nc1ccc(O[C@H]2C[C@@H](Oc3ccc(NC(=N)N)cc3)[C@H](NC(=N)N)C[C@@H]2NC(=N)N)cc1", "values": [
      {"measurement": "viability at 2 h, 100 µM", "setting": "[6]", "value": "> 90", "unit": "%"},
      {"measurement": "viability at 2 h, 100 µM", "setting": "[7]", "value": "> 90", "unit": "%"},
      {"measurement": "Activity", "setting": "[10]", "value": ">20", "unit": "%"},
      {"measurement": "Activity", "setting": "RAW264.7", "value": ">90", "unit": "%"}
    ]},
    {"compound": "N=C(N)Nc1ccc(OC2CCCC(Oc3ccc(NC(=N)N)cc3NC(=N)N)C2)c(NC(=N)N)c1", "note": "(stereo unspecified)", "values": [
      {"measurement": "Ki", "setting": "Furin [5]", "value": 1200, "unit": "nM"},
      {"measurement": "viability at 2 h, 100 µM", "setting": "[6]", "value": "> 90", "unit": "%"},
      {"measurement": "viability at 2 h, 100 µM", "setting": "[7]", "value": "> 90", "unit": "%"},
      {"measurement": "inhibition at 100 µM", "setting": "[8]", "value": "< 40", "unit": "%"},
      {"measurement": "Activity", "setting": "[10]", "value": 30, "unit": "%"},
      {"measurement": "Activity", "setting": "RAW264.7", "value": 70, "unit": "%"}
    ]},
    {"compound": "N=C(N)NCCC[C@@H]1NC(=O)[C@H](Cc2ccc3ccccc3c2)NC(=O)[C@H](Cc2ccccc2)NC(=O)CCC(=O)NCCCC[C@@H](C(=O)N[C@@H](CCCCN)C(=O)NCc2ccc(C(=N)N)cc2)NC(=O)[C@H](CCCNC(=N)N)NC(=O)[C@H](CCCNC(=N)N)NC1=O", "note": "(F[2Nal]RRRKK-{NH(4-amidinobenzyl)}; linker N-6 via Suc)", "values": [
      {"measurement": "Ki", "setting": "Furin [1]", "value": 0.618, "unit": "nM"}
    ]},
    {"compound": "N=C(N)N[C@H]1C[C@@H](NC(=N)N)[C@H](Oc2ccc(C(=N)N)cc2C(=N)N)C[C@@H]1Oc1ccc(C(=N)N)cc1C(=N)N", "values": [
      {"measurement": "Ki", "setting": "Furin [9]", "value": 100, "unit": "nM"}
    ]},
    {"compound": "N=C(N)c1ccc(Oc2cccc(Oc3ccc(C(=N)N)cc3)c2)cc1", "values": [
      {"measurement": "Ki", "setting": "Furin [9]", "value": 100, "unit": "nM"}
    ]}
  ]
}
